Source: article PMC12892976, “Alkylation-based optimization of antifungal FPPS inhibitors yields a potent, broad-spectrum lipophilic zoledronate derivative” (mBio, 2025)
In brackets after ≈: the same amount, converted by molar mass.

What was measured:
Mucor circinelloides = test: MIC broth microdilution (CLSI); format: cell-based; settings: Mucor circinelloides 80-14-240-5007
Procedure: (§1) Antifungal susceptibility was determined by broth microdilution according to the CLSI guidelines described in M27-Ed4 ([16]).

Rhizopus oryzae [1] = test: MIC broth microdilution (CLSI); format: cell-based; settings: Rhizopus oryzae 04-14-364-1703
Procedure: as §1

[2] = system: Cryptococcus bacillisporus; test: MIC broth microdilution (CLSI); format: cell-based; settings: Cryptococcus bacillisporus NIH179
Procedure: as §1

[3] = system: Cryptococcus deneoformans; test: MIC broth microdilution (CLSI); format: cell-based; settings: Cryptococcus deneoformans JEC21
Procedure: as §1

Pichia kudriavzevii = test: MIC broth microdilution (CLSI); format: cell-based; settings: Pichia kudriavzavii ATCC 6258
Procedure: Antifungal susceptibility was determined by broth microdilution according to the CLSI guidelines described in M27-Ed4 ([16]). […] MFC was determined by back-plating drug-treated cultures from MIC broths onto SDA plates. The MFC was defined as the lowest concentration from which no colonies could be cultured.

Candida auris [4] = test: MIC broth microdilution (CLSI); format: cell-based; settings: Candida auris CDC-0384
Procedure: as §1

Aspergillus niger [5] = test: MIC broth microdilution (CLSI); format: cell-based; settings: Aspergillus niger 111
Procedure: as §1

Aspergillus lentulus [6] = test: MIC broth microdilution (CLSI); format: cell-based; settings: Aspergillus lentulus DTO 341-G7
Procedure: as §1

Aspergillus parafelis [7] = test: MIC broth microdilution (CLSI); format: cell-based; settings: Aspergillus parafelis DTO 341-F2
Procedure: as §1

[8] = system: Aspergillus frankstonensis; test: MIC broth microdilution (CLSI); format: cell-based; settings: Aspergillus frankstonensis DTO 341-F3
Procedure: as §1

Paraphyton cookei [9] = test: MIC broth microdilution (CLSI); format: cell-based; settings: Paraphyton cookei R-639
Procedure: as §1

Nannizzia nana = test: MIC broth microdilution (CLSI); format: cell-based; settings: Nannizzia nana R-133
Procedure: as §1

[10] = system: Trichophyton interdigitale; test: MIC broth microdilution (CLSI); format: cell-based; settings: Trichophyton interdigitale R-234
Procedure: as §1

Rhizopus oryzae [11] = test: checkerboard drug interaction (FICI, MICc); format: cell-based;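 further: simplified diagonal checkerboard screen pairing antifungals with FPPS inhibitors, FICI calculated under the Loewe additivity model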
Procedure: (§2) Drug interactions between antifungals and FPPS inhibitors were investigated using a simplified checkerboard diagonal screening method ([45]). […] FICIs were determined according to the Loewe additivity model ([17]).

[12] = system: Cryptococcus bacillisporus; test: checkerboard drug interaction (FICI, MICc); format: cell-based;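 further: interaction of antifungals with FPPS inhibitors assessed by a simplified diagonal checkerboard screen, with FICI computed under the Loewe additivity model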
Procedure: as §2

Cryptococcus tetragattii = test: checkerboard drug interaction (FICI, MICc); format: cell-based;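 further: simplified diagonal checkerboard screen pairing antifungals with FPPS inhibitors, with FICI calculated under the Loewe additivity model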
Procedure: as §2

[13] = system: Cryptococcus deneoformans; test: checkerboard drug interaction (FICI, MICc); format: cell-based;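 further: simplified diagonal checkerboard screen pairing antifungals with FPPS inhibitors, FICI calculated under the Loewe additivity model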
Procedure: as §2

Scedosporium apiospermum = test: checkerboard drug interaction (FICI, MICc); format: cell-based;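 further: simplified diagonal checkerboard screen of antifungal plus FPPS inhibitor pairs, with FICI computed under the Loewe additivity model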
Procedure: as §2

Candida auris [14] = test: checkerboard drug interaction (FICI, MICc); format: cell-based;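 further: simplified diagonal checkerboard screen pairing antifungals with FPPS inhibitors, with FICI computed under the Loewe additivity model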
Procedure: as §2

Candida dubliniensis = test: checkerboard drug interaction (FICI, MICc); format: cell-based;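 further: simplified diagonal checkerboard screen pairing antifungals with FPPS inhibitors, FICI calculated under the Loewe additivity model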
Procedure: as §2

Aspergillus niger [15] = test: checkerboard drug interaction (FICI, MICc); format: cell-based;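 further: simplified diagonal checkerboard screen pairing antifungals with FPPS inhibitors, FICI calculated under the Loewe additivity model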
Procedure: as §2

Aspergillus terreus = test: checkerboard drug interaction (FICI, MICc); format: cell-based;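 further: simplified diagonal checkerboard screen pairing antifungals with FPPS inhibitors, FICI derived by the Loewe additivity model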
Procedure: as §2

Aspergillus udagawae = test: checkerboard drug interaction (FICI, MICc); format: cell-based;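 further: simplified diagonal checkerboard screen pairing antifungals with FPPS inhibitors, FICI calculated using the Loewe additivity model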
Procedure: as §2

Aspergillus lentulus [16] = test: checkerboard drug interaction (FICI, MICc); format: cell-based;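 further: simplified diagonal checkerboard screen pairing antifungals with FPPS inhibitors, with the interaction index calculated under the Loewe additivity model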
Procedure: as §2

Aspergillus felis = test: checkerboard drug interaction (FICI, MICc); format: cell-based
Procedure: as §2

Fusarium solani = test: MIC broth microdilution (CLSI); settings: Fusarium solani 04-16-056-1862
Procedure: as §1

Trichophyton tonsurans = test: MIC broth microdilution (CLSI); settings: Trichophyton tonsurans R-168
Procedure: as §1

Trichophyton soudanense = test: MIC broth microdilution (CLSI); settings: Trichophyton soudanense R-167
Procedure: as §1

Lomentospora prolificans = test: checkerboard drug interaction (FICI, MICc)
Procedure: as §2

Aspergillus parafelis [17] = test: checkerboard drug interaction (FICI, MICc)
Procedure: as §2

[18] = system: Aspergillus frankstonensis; test: checkerboard drug interaction (FICI, MICc);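 further: simplified diagonal checkerboard screen pairing antifungals with FPPS inhibitors, FICI calculated using the Loewe additivity model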
Procedure: as §2

Epidermophyton floccosum = test: checkerboard drug interaction (FICI, MICc)
Procedure: as §2

Paraphyton cookei [19] = test: checkerboard drug interaction (FICI, MICc);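 further: simplified diagonal checkerboard screen pairing an antifungal with an FPPS inhibitor, FICI computed under the Loewe additivity model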
Procedure: as §2

[20] = system: Trichophyton interdigitale; test: checkerboard drug interaction (FICI, MICc);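 further: simplified diagonal checkerboard screen pairing antifungals with FPPS inhibitors, FICI values calculated under the Loewe additivity model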
Procedure: as §2

With `CC(=O)N1CCN(c2ccc(OCC3COC(Cn4ccnc4)(c4ccc(Cl)cc4Cl)O3)cc2)CC1` (stereo not shown) [KET, ketoconazole] the “MIC / MEC” value (Mucor circinelloides) was 16 µg/mL (≈ 30.1 µM), the “MIC / MEC” value (Rhizopus oryzae [1]) was >16 µg/mL and the “MIC / MEC” value [2] was 0.25 µg/mL (≈ 0.47 µM). For the same molecule, the “MIC / MEC” value [3] was 0.13 µg/mL (≈ 0.245 µM), the “MIC / MEC” value (Pichia kudriavzevii) was 0.25 µg/mL (≈ 0.47 µM) and the “MIC / MEC” value (Candida auris [4]) was 4 µg/mL (≈ 7.53 µM). The “MIC / MEC” value (Aspergillus niger [5]) was 8 µg/mL (≈ 15.1 µM), the “MIC / MEC” value (Aspergillus lentulus [6]) was 16 µg/mL (≈ 30.1 µM) and the “MIC / MEC” value (Aspergillus parafelis [7]) was >16 µg/mL. For the same molecule, the “MIC / MEC” value [8] was 8 µg/mL (≈ 15.1 µM), the “MIC / MEC” value (Paraphyton cookei [9]) was 8 µg/mL (≈ 15.1 µM) and the “MIC / MEC” value (Nannizzia nana) was 0.5 µg/mL (≈ 0.941 µM). For the same molecule, the “MIC / MEC” value [10] was 8 µg/mL (≈ 15.1 µM), the “antifungal MICc” value (Rhizopus oryzae [11]; in combination with 10-ZOL) was 4 and the “antifungal MICc” value (Rhizopus oryzae [11]; in combination with ZOL) was 16. The “antifungal MICc” value ([12]; in combination with 10-ZOL) was 0.125, the “antifungal MICc” value ([12]; in combination with ZOL) was 0.25 and the “antifungal MICc” value (Cryptococcus tetragattii; in combination with 10-ZOL) was 0.125. The “antifungal MICc” value (Cryptococcus tetragattii; in combination with ZOL) was 0.25, the “antifungal MICc” value ([13]; in combination with 10-ZOL) was 0.063 and the “antifungal MICc” value ([13]; in combination with ZOL) was 0.03125. For the same molecule, the “antifungal MICc” value (Scedosporium apiospermum; in combination with 10-ZOL) was 4, the “antifungal MICc” value (Scedosporium apiospermum; in combination with ZOL) was 4 and the “antifungal MICc” value (Candida auris [14]; in combination with 10-ZOL) was 1. The “antifungal MICc” value (Candida auris [14]; in combination with ZOL) was 1, the “antifungal MICc” value (Candida dubliniensis; in combination with 10-ZOL) was 0.006 and the “antifungal MICc” value (Candida dubliniensis; in combination with ZOL) was 0.005. For the same molecule, the “antifungal MICc” value (Aspergillus niger [15]; in combination with 10-ZOL) was 2, the “antifungal MICc” value (Aspergillus niger [15]; in combination with ZOL) was 4 and the “antifungal MICc” value (Aspergillus terreus; in combination with 10-ZOL) was 2. For the same molecule, the “antifungal MICc” value (Aspergillus terreus; in combination with ZOL) was 0.25, the “antifungal MICc” value (Aspergillus udagawae; in combination with 10-ZOL) was 0.5 and the “antifungal MICc” value (Aspergillus udagawae; in combination with ZOL) was 2. For the same molecule, the “antifungal MICc” value (Aspergillus lentulus [16]; in combination with 10-ZOL) was 4, the “antifungal MICc” value (Aspergillus lentulus [16]; in combination with ZOL) was 4 and the “antifungal MICc” value (Aspergillus felis; in combination with 10-ZOL) was 4. For the same molecule, the “antifungal MICc” value (Aspergillus felis; in combination with ZOL) was 8, the “MIC / MEC” value (Fusarium solani) was 16 µg/mL (≈ 30.1 µM) and the “MIC / MEC” value (Trichophyton tonsurans) was 4 µg/mL (≈ 7.53 µM). For the same molecule, the “MIC / MEC” value (Trichophyton soudanense) was 4 µg/mL (≈ 7.53 µM), the “antifungal MICc” value (Lomentospora prolificans; in combination with 10-ZOL) was 0.25 and the “antifungal MICc” value (Lomentospora prolificans; in combination with ZOL) was 2. The “antifungal MICc” value (Aspergillus parafelis [17]; in combination with 10-ZOL) was 16, the “antifungal MICc” value (Aspergillus parafelis [17]; in combination with ZOL) was 32 and the “antifungal MICc” value ([18]; in combination with 10-ZOL) was 1. For the same molecule, the “antifungal MICc” value ([18]; in combination with ZOL) was 4, the “antifungal MICc” value (Epidermophyton floccosum; in combination with 10-ZOL) was 1 and the “antifungal MICc” value (Epidermophyton floccosum; in combination with ZOL) was 0.5. For the same molecule, the “antifungal MICc” value (Paraphyton cookei [19]; in combination with 10-ZOL) was 1, the “antifungal MICc” value (Paraphyton cookei [19]; in combination with ZOL) was 4 and the “antifungal MICc” value ([20]; in combination with 10-ZOL) was 0.5. For the same molecule, the “antifungal MICc” value ([20]; in combination with ZOL) was 2.
`C[C@@H](c1ncncc1F)[C@](O)(Cn1cncn1)c1ccc(F)cc1F` [VOR] was tested, and the “MIC / MEC” value (Mucor circinelloides) was 8 µg/mL (≈ 22.9 µM), the “MIC / MEC” value (Rhizopus oryzae [1]) was 16 µg/mL (≈ 45.8 µM) and the “MIC / MEC” value [2] was 0.06 µg/mL (≈ 0.172 µM). The “MIC / MEC” value [3] was 0.06 µg/mL (≈ 0.172 µM), the “MIC / MEC” value (Pichia kudriavzevii) was 0.5 µg/mL (≈ 1.43 µM) and the “MIC / MEC” value (Candida auris [4]) was 2 µg/mL (≈ 5.73 µM). The “MIC / MEC” value (Aspergillus niger [5]) was 1 µg/mL (≈ 2.86 µM), the “MIC / MEC” value (Aspergillus lentulus [6]) was 4 µg/mL (≈ 11.5 µM) and the “MIC / MEC” value (Aspergillus parafelis [7]) was 8 µg/mL (≈ 22.9 µM). For the same molecule, the “MIC / MEC” value [8] was 2 µg/mL (≈ 5.73 µM), the “MIC / MEC” value (Paraphyton cookei [9]) was 0.5 µg/mL (≈ 1.43 µM) and the “MIC / MEC” value (Nannizzia nana) was 0.06 µg/mL (≈ 0.172 µM). The “MIC / MEC” value [10] was 0.25 µg/mL (≈ 0.716 µM), the “antifungal MICc” value (Rhizopus oryzae [11]; in combination with 10-ZOL) was 8 and the “antifungal MICc” value (Rhizopus oryzae [11]; in combination with ZOL) was 8. For the same molecule, the “antifungal MICc” value ([12]; in combination with 10-ZOL) was 0.03, the “antifungal MICc” value ([12]; in combination with ZOL) was 0.125 and the “antifungal MICc” value (Cryptococcus tetragattii; in combination with 10-ZOL) was 0.063. For the same molecule, the “antifungal MICc” value (Cryptococcus tetragattii; in combination with ZOL) was 0.125, the “antifungal MICc” value ([13]; in combination with 10-ZOL) was 0.063 and the “antifungal MICc” value ([13]; in combination with ZOL) was 0.0625. For the same molecule, the “antifungal MICc” value (Scedosporium apiospermum; in combination with 10-ZOL) was 0.5, the “antifungal MICc” value (Scedosporium apiospermum; in combination with ZOL) was 1 and the “antifungal MICc” value (Candida auris [14]; in combination with 10-ZOL) was 0.25. For the same molecule, the “antifungal MICc” value (Candida auris [14]; in combination with ZOL) was 1, the “antifungal MICc” value (Candida dubliniensis; in combination with 10-ZOL) was 0.033 and the “antifungal MICc” value (Candida dubliniensis; in combination with ZOL) was 0.0125. For the same molecule, the “antifungal MICc” value (Aspergillus niger [15]; in combination with 10-ZOL) was 0.13, the “antifungal MICc” value (Aspergillus niger [15]; in combination with ZOL) was 1 and the “antifungal MICc” value (Aspergillus terreus; in combination with 10-ZOL) was 0.25. For the same molecule, the “antifungal MICc” value (Aspergillus terreus; in combination with ZOL) was 0.125, the “antifungal MICc” value (Aspergillus udagawae; in combination with 10-ZOL) was 0.03 and the “antifungal MICc” value (Aspergillus udagawae; in combination with ZOL) was 0.5. The “antifungal MICc” value (Aspergillus lentulus [16]; in combination with 10-ZOL) was 0.5, the “antifungal MICc” value (Aspergillus lentulus [16]; in combination with ZOL) was 0.5 and the “antifungal MICc” value (Aspergillus felis; in combination with 10-ZOL) was 0.5. For the same molecule, the “antifungal MICc” value (Aspergillus felis; in combination with ZOL) was 0.5, the “MIC / MEC” value (Fusarium solani) was 1 µg/mL (≈ 2.86 µM) and the “MIC / MEC” value (Trichophyton tonsurans) was 0.13 µg/mL (≈ 0.372 µM). The “MIC / MEC” value (Trichophyton soudanense) was 0.13 µg/mL (≈ 0.372 µM), the “antifungal MICc” value (Lomentospora prolificans; in combination with 10-ZOL) was 2 and the “antifungal MICc” value (Lomentospora prolificans; in combination with ZOL) was 16. The “antifungal MICc” value (Aspergillus parafelis [17]; in combination with 10-ZOL) was 2, the “antifungal MICc” value (Aspergillus parafelis [17]; in combination with ZOL) was 2 and the “antifungal MICc” value ([18]; in combination with 10-ZOL) was 4. The “antifungal MICc” value ([18]; in combination with ZOL) was 2, the “antifungal MICc” value (Epidermophyton floccosum; in combination with 10-ZOL) was 0.032 and the “antifungal MICc” value (Epidermophyton floccosum; in combination with ZOL) was 0.25. The “antifungal MICc” value (Paraphyton cookei [19]; in combination with ZOL) was 0.125, the “antifungal MICc” value ([20]; in combination with 10-ZOL) was 0.063 and the “antifungal MICc” value ([20]; in combination with ZOL) was 0.0625.
